Reference: patent publication US4303785A, “Antitumor anthracycline antibiotics” (priority 1978, dated 1981)
In brackets after ≈: the same amount, converted by molar mass. Like-named read-outs stand apart in the source and are kept apart here.

How the values were obtained:
[1] = test system: Bacillus cereus ATCC 10702; test: Minimum inhibitory concentration, broth dilution method (Table 3); format: cell-based
Text: (§1) To illustrate such activity, minimum inhibitory concentrations (as determined by the broth dilution method) of representative compounds are shown in Table 3.

Bacillus megaterium APF = test: as above; format: cell-based
Text: as §1

[2] = test system: Bacillus subtillis NRRLB-558; test: as above; format: cell-based
Text: as §1

Candida albicans = test: as above; format: cell-based
Text: as §1

[3] = test system: Corynebacterium bovis 1810; test: as above; format: cell-based
Text: as §1

Escherichia coli NIHJ = test: as above; format: cell-based
Text: as §1

[4] = test system: Micrococcus flavus FDA 16; test: as above; format: cell-based
Text: as §1

[5] = test system: Mycobacterium smegmatis ATCC 607; test: as above; format: cell-based
Text: as §1

[6] = test system: Pseudomonas aeruginosa A3; test: as above; format: cell-based
Text: as §1

Sarcina lutea PCI 1001 = test: as above; format: cell-based
Text: as §1

Staph. aureus FDA 209P = test: as above; format: cell-based
Text: as §1

Staph. aureus Smith = test: as above; format: cell-based
Text: as §1

L1210 leukemia cells = test: Growth inhibitory effect on L1210 cells in culture (Table 4); format: cell-based; conditions: for inhibition at 0.1 µg/mL / inhibition at 0.5 µg/mL: Mus musculus, read-out: Inhibition Rate (growth); for inhibition at 0.1 µg/mL: L1210, 0.1 μg./ml.; for inhibition at 0.5 µg/mL: L1210, 0.5 μg./ml.
Method: For example, L1210 cells (5×10^4 cells/ml.) were inoculated in RPMI 1640 medium (Roswell Park Memorial Institute 1640) containing 20% calf serum and cultivated at 37° C. in the presence of 0.1 and 0.5 μg./ml. of the test compounds in a CO2 incubator.

L1210 cells = test: Inhibition of 14C-uridine and 14C-thymidine incorporation (nucleic acid synthesis) in L1210 cells in culture (Table 5); format: cell-based; conditions: 60 min. at 37° C.; for IC50: Mus musculus, L1210, 1 h
Method: The effect of the tetrahydropyranyl ether derivatives of formula I' on nucleic acid synthesis was examined as follows: […]
1×10^5 cells/ml. of L1210 cells were suspended in RPMI medium containing 10% calf serum, pre-cultivated at 37° C. for 1 to 2 hours in a CO2 incubator and then the test compounds were added to the medium at various concentrations. After 15 min. of incubation, ^14 C-uridine (0.05 μCi/ml.) or ^14 C-thymidine (0.05 μCi/ml.) was added and incubated at 37° C. for 60 min. Trichloroacetic acid (TCA) (10%) was added to the incubation medium to stop the reaction and precipitate the acid-insoluble materials, and then the precipitate was washed three times with 5 to 10% […]. The radioactivity was measured and expressed as 50% inhibition concentration of incorporation.

L1210 leukemia = test: Antitumor activity in BDF1 mice inoculated with L1210 leukemia cells (Table 6); format: in vivo; conditions: once daily for 10 days
Text: As an example, BDF1 mice were inoculated intraperitoneally with 1×10^6 cells/mouse of L1210 leukemia cells.

[7] = test system: NADPH-cytochrome P450 reductase; test: Stability on rat hepatic NADPH-cytochrome P450 reductase: 7-deoxyaglycone formed (Table 7); format: in vitro ADME; conditions: 25° C., 25 min., nitrogen; substrate 0.1 mM, NADPH 0.2 mM, enzyme 4.6 μg./ml, pH 8.0
Method: C. The marked antitumor effects seen from A and B above were confirmed by the stability of the test compounds on the inactivation by hepatic NADPH-cytochrome P450 reductase. Specifically, NADPH-cytochrome P450 reductase purified from rat liver homogenate was incubated with the tetrahydropyranyl ether derivatives of formula I' at 25° C. for 25 min. in nitrogen gas phase, and the incubation product formed, 7-deoxyaglycone, was determined as shown in Table 7.

[8] = thymidine, read-out: 50% Inhibition Concentration of 14C-Thymidine Incorporation
[9] = uridine, read-out: 50% Inhibition Concentration of 14C-Uridine Incorporation

SMILES	inhibition at 0.1 µg/mL (L1210 leukemia cells)	inhibition at 0.5 µg/mL (L1210 leukemia cells)	IC50 (L1210 cells; [8])	IC50 (L1210 cells; [9])	Antitumor Activity (T/C, prolongation rate of survival day) (L1210 leukemia; 0.15 mg./kg./day i.p.)	Antitumor Activity (T/C, prolongation rate of survival day) (L1210 leukemia; 0.3 mg./kg./day i.p.)	Antitumor Activity (T/C, prolongation rate of survival day) (L1210 leukemia; 0.6 mg./kg./day i.p.)	Antitumor Activity (T/C, prolongation rate of survival day) (L1210 leukemia; 1.25 mg./kg./day i.p.)	Antitumor Activity (T/C, prolongation rate of survival day) (L1210 leukemia; 2.5 mg./kg./day i.p.)	Antitumor Activity (T/C, prolongation rate of survival day) (L1210 leukemia; 5 mg./kg./day i.p.)	Product (7-Deoxyaglycone) [7]	Inhibition Rate (growth) (L1210 leukemia cells; 0.1 μg./ml.)	Inhibition Rate (growth) (L1210 leukemia cells; 0.5 μg./ml.)	50% Inhibition Concentration of 14C-Thymidine Incorporation (L1210 cells; thymidine)	50% Inhibition Concentration of 14C-Uridine Incorporation (L1210 cells; uridine)	further results
COc1cccc2c1C(=O)c1c(O)c3c(c(O)c1C2=O)C[C@@](O)(C(=O)CO)C[C@@H]3O[C@H]1C[C@H](N)[C@H](OC2CCCCO2)[C@H](C)O1 (single isomer, unassigned; isomer a) [4'-O-PAa, 4'-O-tetrahydropyranyl adriamycin (isomer a)]	65.9%	81.1%	0.37 µg/mL (≈ 0.59 µM)	0.2 µg/mL (≈ 0.319 µM)	127%	120%	187%	180%	173%	–	–	–	–	–	–	MIC ([1]; ATCC10702): 6.25 µg/mL (≈ 9.96 µM); MIC (Bacillus megaterium APF; Priestia megaterium): 3.12 µg/mL (≈ 4.97 µM); MIC ([2]; Bacillus, NRRLB558, Bacillus subtillis NRRLB-558): 3.12 µg/mL (≈ 4.97 µM); MIC (Candida albicans): > 100 µg/mL; MIC [3]: 3.12 µg/mL (≈ 4.97 µM); MIC (Escherichia coli NIHJ): > 100 µg/mL; MIC ([4]; Micrococcus flavus, FDA16, Micrococcus flavus FDA 16): 3.12 µg/mL (≈ 4.97 µM); MIC ([5]; Mycolicibacterium smegmatis, ATCC607): 100 µg/mL (≈ 159 µM); MIC ([6]; Pseudomonas aeruginosa, A3, Pseudomonas aeruginosa A3): > 100 µg/mL; MIC (Sarcina lutea PCI 1001; Micrococcus luteus, PCI1001): 0.78 µg/mL (≈ 1.24 µM); MIC (Staph. aureus FDA 209P; Staphylococcus aureus, FDA209P): 6.25 µg/mL (≈ 9.96 µM); MIC (Staph. aureus Smith; Staphylococcus aureus): 6.25 µg/mL (≈ 9.96 µM)
COc1cccc2c1C(=O)c1c(O)c3c(c(O)c1C2=O)C[C@@](O)(C(=O)COC1CCCCO1)C[C@@H]3O[C@H]1C[C@H](N)[C@H](OC2CCCCO2)[C@H](C)O1 (single isomer, unassigned; isomer a) [4',14-di-O-PAa, 4',14-bis(O-tetrahydropyranyl)adriamycin (isomer a)]	37.5%	80.8%	0.55 µg/mL (≈ 0.773 µM)	0.23 µg/mL (≈ 0.323 µM)	96%	103%	96%	109%	115%	154%	13.1 nmoles/tube	–	–	–	–	–
COc1cccc2c1C(=O)c1c(O)c3c(c(O)c1C2=O)C[C@@](O)(C(=O)CO)C[C@@H]3O[C@H]1C[C@H](N)[C@H](OC2CCCCO2)[C@H](C)O1 (single isomer, unassigned; isomer b) [4'-O-PAb, 4'-O-tetrahydropyranyl adriamycin (isomer b)]	–	–	–	–	113%	160%	293%	> 373%	> 360%	> 375%	–	78.1%	92.9%	0.50 µg/mL	0.24 µg/mL	Minimum Inhibitory Concentration (MIC) [1]: 6.25 µg/mL; Minimum Inhibitory Concentration (MIC) (Bacillus megaterium APF): 3.12 µg/mL; Minimum Inhibitory Concentration (MIC) ([2]; Bacillus subtillis NRRLB-558): 3.12 µg/mL; Minimum Inhibitory Concentration (MIC) (Candida albicans): > 50 µg/mL; Minimum Inhibitory Concentration (MIC) [3]: 3.12 µg/mL; Minimum Inhibitory Concentration (MIC) (Escherichia coli NIHJ): > 100 µg/mL; Minimum Inhibitory Concentration (MIC) ([4]; Micrococcus flavus FDA 16): 3.12 µg/mL; Minimum Inhibitory Concentration (MIC) [5]: 100 µg/mL; Minimum Inhibitory Concentration (MIC) ([6]; Pseudomonas aeruginosa A3): > 100 µg/mL; Minimum Inhibitory Concentration (MIC) (Sarcina lutea PCI 1001): 0.78 µg/mL; Minimum Inhibitory Concentration (MIC) (Staph. aureus FDA 209P): 6.25 µg/mL; Minimum Inhibitory Concentration (MIC) (Staph. aureus Smith): 6.25 µg/mL
COc1cccc2c1C(=O)c1c(O)c3c(c(O)c1C2=O)C[C@@](O)(C(=O)COC1CCCCO1)C[C@@H]3O[C@H]1C[C@H](N)[C@H](OC2CCCCO2)[C@H](C)O1 (single isomer, unassigned; isomer b) [4',14-di-O-PAb, 4',14-bis(O-tetrahydropyranyl)adriamycin (isomer b)]	–	–	–	–	115%	96%	103%	103%	109%	161%	15.8 nmoles/tube	25.5%	72.1%	0.97 µg/mL	0.24 µg/mL	–
COc1cccc2c1C(=O)c1c(O)c3c(c(O)c1C2=O)C[C@@](O)(C(=O)COC1CCCCO1)C[C@@H]3O[C@H]1C[C@H](N)[C@H](O)[C@H](C)O1 (stereo partly shown) [Example 14-O-PA, 14-O-tetrahydropyranyl adriamycin]	7.6%	58.3%	0.42 µg/mL (≈ 0.669 µM)	0.17 µg/mL (≈ 0.271 µM)	103%	110%	113%	126%	130%	142%	18.4 nmoles/tube	–	–	–	–	–
